Test results: patent publication US9724380B2, “Method and compositions for synchronizing time of insemination in gilts” (JBS UNITED ANIMAL HEALTH II LLC, priority 2012, dated 2017)

Assays:
gilts = assay: Example 5: ovulation monitored by transrectal ultrasonography after 100, 200 or 400 mcg triptorelin gel intravaginally at 120 h after MATRIX withdrawal; assay type: in vivo, swine; details: for Percentage ovulated by 48 hours: blood-sampled subpopulation; for % of Sows Ovulating: raw average, PTK 2-07
Method: (§1) All gilts were individually fed MATRIX® as a top-dress for 14 or 15 days at the recommended rate of 15 mg/gilt/day. Gilts were withdrawn from MATRIX® feeding (last top-dress in the morning on Day 0) and allocated to each of the following treatments. Controls were vehicle gel treated (vehicle gel without triptorelin) at 120 (+/−2) hours following MATRIX® withdrawal (last top dress). The other gilts were given 100, 200 or 400 mcg triptorelin as the acetate in a methylcellulose gel formulation 120 (+/−2) hours following MATRIX® withdrawal. The four treatments were: • 1. Vehicle gel (VG): vehicle gel without triptorelin at 120 (+/−2) hours after MATRIX® withdrawal. • 2. TG 100: 100 mcg (2 mL 50 mcg/mL) triptorelin gel at 120 (+/−2) hours after MATRIX® withdrawal. • 3. TG 200: 200 mcg (2 mL 100 mcg/mL) triptorelin gel at 120 (+/−2) hours after MATRIX® withdrawal. • 4. TG 400: 400 mcg (2 mL 200 mcg/mL) triptorelin gel at 120 (+/−2) hours after MATRIX® withdrawal.
Triptorelin (pGlu-His-Trp-Ser-Tyr-D-Trp-Leu-Arg-Pro-Gly-NH2) was supplied in the acetate form, from Bachem, Torrance, Calif. (Item H-4075 CGMP grade). Triptorelin gel (100-400 mcg/2 mL dose) was formulated by Argenta (Auckland, NZ) in a gel composed of Methocel Premium A4000 (Dow Chemical), citrate buffer (pH 5.5), NaCl, methionine, and methyl and propyl parabens. Fifty-four milliliters of triptorelin gel (100 mcg triptorelin acetate/mL) was packaged in Amber Borosilicate Glass Serum Vials (610206-50) with a Gray Butyl Pharmaceutical Serum Vial Stopper (73828A-SS) with a Standard Aluminum Seal (SAS20NAT). […] MATRIX® was supplied as the US commercially available form.
Ovulation was monitored twice on Day 5 (8 hours and 16 hours post-treatment) and every 8 hours on Day 6 and Day 7 or until ovulation was confirmed or 176 hours following last MATRIX® feeding. The ovulatory status of all gilts was monitored by transrectal ultrasonography. An Aloka 500 ultrasound machine is used for this purpose, with a 7.5 MHz linear array transducer attached to a fixed-angle PVC stabilizing rod to facilitate insertion into the rectum. The transducer and PVC rod are coated with a gynecological lubricant and gently inserted into the rectum until the ovaries can be visualized, one at a time. The diameters of the three largest follicles were recorded (to the nearest 0.1 mm) at each scanning. A gilt was declared to have ovulated when the number of large follicles (≧6.5 mm) fell to less than 3.
(§2) A single 2 mL dose of triptorelin gel or vehicle gel was deposited within approximately 1-2 cm posterior to the cervix with a catheter similar to those used for artificial insemination. The dose was delivered using a standard multi-dose applicator attached to the catheter. A new disposable sheath, which surrounds the catheter, was used for each gilt.

serum LH = assay: Example 5: serum LH surge after triptorelin gel (jugular catheter subpopulation); assay type: in vivo, swine
Method: as §1
A catheter was inserted non-surgically into the jugular vein (Kraeling et al. 1982) of a subpopulation of gilts in each treatment group (vehicle gel, n=8; 100 mcg triptorelin, n=6; 200 mcg triptorelin, n=7 and 400 mcg triptorelin, n=6). Ten mL blood samples were collected every 15 minutes for one hour prior to treatment, immediately following treatment (0) and at 0.5, 1, 2, 4, 6, 12, 18, 24, 36 and 48 hours after treatment. Blood samples were maintained at 4° C. until centrifuged at 800×g for 15 minutes within 12 hours of collection. The resulting serum was stored frozen until assayed for LH using validated procedures for pig serum (Kesner et al., 1987 and Kraeling et al., 1982). Onset, duration, and magnitude of the LH surge were analyzed. The LH data were analyzed with the General Linear Models procedure of SAS. Differences between treatments were tested on least squares means estimates using the T test at P<0.05. Onset of the LH surge is when serum LH concentration is greater than or equal to two standard deviations of the mean of the pre-treatment serum LH concentrations. Duration of the LH surge is the period between onset and when serum LH concentration is again less than or equal to two standard deviations of the mean of the pre-treatment serum LH concentrations. Magnitude of the LH surge is the maximum serum LH concentration reached during the LH surge.
as §2

[1] = 200 mcg T, LS mean (1 gilt with surge)
[2] = 200 mcg T, relative to time of triptorelin gel treatment, LS mean (1 gilt with surge)

What does the source list for `CC(C)C[C@H](NC(=O)[C@@H](Cc1c[nH]c2ccccc12)NC(=O)[C@H](Cc1ccc(O)cc1)NC(=O)[C@H](CO)NC(=O)[C@H](Cc1c[nH]c2ccccc12)NC(=O)[C@H](Cc1c[nH]cn1)NC(=O)[C@@H]1CCC(=O)N1)C(=O)N[C@@H](CCCNC(=N)N)C(=O)N1CCC[C@H]1C(=O)NCC(N)=O` [T, pGlu-His-Trp-Ser-Tyr-D-Trp-Leu-Arg-Pro-Gly-NH2]?
Percentage ovulated by 48 hours (gilts; 100 mcg T (n = 6)): 100%; % of Sows Ovulating (gilts; 100 mcg T, 128 h post-MATRIX (8 h post-T)): 0.0%; % of Sows Ovulating (gilts; 100 mcg T, 136 h post-MATRIX (16 h post-T)): 5.0%; % of Sows Ovulating (gilts; 100 mcg T, 144 h post-MATRIX (24 h post-T)): 20.0%; % of Sows Ovulating (gilts; 100 mcg T, 152 h post-MATRIX (32 h post-T)): 30.0%; % of Sows Ovulating (gilts; 100 mcg T, 160 h post-MATRIX (40 h post-T)): 60.0%; % of Sows Ovulating (gilts; 100 mcg T, 168 h post-MATRIX (48 h post-T)): 95.0%; % of Sows Ovulating (gilts; 100 mcg T, 176 h post-MATRIX (56 h post-T)): 100.0%; Percentage ovulated by 48 hours (gilts; 200 mcg T (n = 7)): 100%; % of Sows Ovulating (gilts; 200 mcg T, 128 h post-MATRIX (8 h post-T)): 0.0%; % of Sows Ovulating (gilts; 200 mcg T, 136 h post-MATRIX (16 h post-T)): 0.0%; Percentage ovulated by 48 hours (gilts; 400 mcg T (n = 6)): 100%; % of Sows Ovulating (gilts; 400 mcg T, 128 h post-MATRIX (8 h post-T)): 4.5%; % of Sows Ovulating (gilts; 400 mcg T, 136 h post-MATRIX (16 h post-T)): 9.1%; % of Sows Ovulating (gilts; 400 mcg T, 168 h post-MATRIX (48 h post-T)): 100.0%; % of Sows Ovulating (gilts; 400 mcg T, 176 h post-MATRIX (56 h post-T)): 100.0%; Gilts, which displayed a LH surge (number) (serum LH; 100 mcg T (n = 6)): 4; Magnitude of LH surge (maximum serum LH concentration) (serum LH; 100 mcg T, LS mean ± SE): 3.94 ± 1.22; Onset of LH surge (serum LH; 100 mcg T, relative to time of triptorelin gel treatment, LS mean ± SE): 4 ± 3; Gilts, which displayed a LH surge (number) (serum LH; 200 mcg T (n = 7)): 1; Duration of LH surge (serum LH; [1]): 18; Magnitude of LH surge (maximum serum LH concentration) (serum LH; [1]): 8.98; Onset of LH surge (serum LH; [2]): 0.5; Time of maximum LH conc. (serum LH; [2]): 4; Gilts, which displayed a LH surge (number) (serum LH; 400 mcg T (n = 6)): 5; Magnitude of LH surge (maximum serum LH concentration) (serum LH; 400 mcg T, LS mean ± SE): 11.65 ± 12.35; Onset of LH surge (serum LH; 400 mcg T, relative to time of triptorelin gel treatment, LS mean ± SE): 4 ± 4
